From patent publication US11053204B2, “Pyrimidinyloxy benzene derivatives as herbicides” (FMC Corporation, priority 2015, dated 2021)

Tests used:
Format in all cases: in vivo
[1] = tested on: Italian ryegrass (Lolium multiflorum); assay: Test A preemergence, visual injury rating; conditions: for Plant response rating, Ryegrass, Italian: 31 g ai/ha, 0 to 100 scale, 0 no effect, 100 complete control; for Ryegrass, Italian plant response rating: 125 g ai/ha, 0 to 100 scale (0 no effect, 100 complete control)
Summary of the method: (§1)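 Scoring: eye-based comparison with untreated controls, 0 for no effect through 100 for complete control, at about day 10. Treatments: directed soil spray preemergence; foliar spray postemergence on 2–10 cm plants at the one- to two-leaf stage. Medium: loam soil with sand.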

[2] = tested on: barnyardgrass (Echinochloa crus-galli); assay: Test A preemergence, visual injury rating; conditions: for Plant response rating, Barnyardgrass: 31 g ai/ha, 0 to 100 scale, 0 no effect, 100 complete control; for Barnyardgrass plant response rating: 125 g ai/ha, 0 to 100 scale (0 no effect, 100 complete control)
Summary of the method: as §1

[3] = tested on: giant foxtail (Setaria faberii); assay: Test A preemergence, visual injury rating; conditions: for Plant response rating, Foxtail, Giant: 31 g ai/ha, 0 to 100 scale, 0 no effect, 100 complete control; for Foxtail, Giant plant response rating: 125 g ai/ha, 0 to 100 scale (0 no effect, 100 complete control)
Summary of the method: as §1

[4] = tested on: kochia (Kochia scoparia); assay: Test A preemergence, visual injury rating; conditions: for Plant response rating, Kochia: 31 g ai/ha, 0 to 100 scale, 0 no effect, 100 complete control; for Kochia plant response rating: 125 g ai/ha, 0 to 100 scale (0 no effect, 100 complete control)
Summary of the method: as §1

[5] = tested on: pigweed (Amaranthus retroflexus); assay: Test A preemergence, visual injury rating; conditions: for Plant response rating, Pigweed: 31 g ai/ha, 0 to 100 scale, 0 no effect, 100 complete control; for Pigweed plant response rating: 125 g ai/ha, 0 to 100 scale (0 no effect, 100 complete control)
Summary of the method: as §1

[6] = tested on: ragweed (common ragweed, Ambrosia elatior); assay: Test A preemergence, visual injury rating; conditions: for Plant response rating, Ragweed: 31 g ai/ha, 0 to 100 scale, 0 no effect, 100 complete control; for Ragweed plant response rating: 125 g ai/ha, 0 to 100 scale (0 no effect, 100 complete control)
Summary of the method: as §1

[7] = tested on: Italian ryegrass (Lolium multiflorum); assay: Test A postemergence, visual injury rating; conditions: 0 is no effect, 100 is complete control; for Ryegrass, Italian plant response rating: 31 g ai/ha, 0 to 100 scale, approximately 10 days; for Ryegrass, Italian plant response rating (0 to 100 scale): 125 g ai/ha
Summary of the method: as §1

[8] = tested on: barnyardgrass (Echinochloa crus-galli); assay: Test A postemergence, visual injury rating; conditions: 0 is no effect, 100 is complete control; for Barnyardgrass plant response rating: 31 g ai/ha, 0 to 100 scale, approximately 10 days; for Barnyardgrass plant response rating (0 to 100 scale): 125 g ai/ha
Summary of the method: as §1

[9] = tested on: blackgrass (Alopecurus myosuroides); assay: Test A postemergence, visual injury rating; conditions: 0 is no effect, 100 is complete control; for Blackgrass plant response rating: 31 g ai/ha, 0 to 100 scale, approximately 10 days; for Blackgrass plant response rating (0 to 100 scale): 125 g ai/ha
Summary of the method: as §1

[10] = tested on: corn (Zea mays); assay: Test A postemergence, visual injury rating; conditions: 0 is no effect, 100 is complete control; for Corn plant response rating: 31 g ai/ha, 0 to 100 scale, approximately 10 days; for Corn plant response rating (0 to 100 scale): 125 g ai/ha
Summary of the method: as §1

[11] = tested on: galium (catchweed bedstraw, Galium aparine); assay: Test A postemergence, visual injury rating; conditions: 0 is no effect, 100 is complete control; for Galium plant response rating: 31 g ai/ha, 0 to 100 scale, approximately 10 days; for Galium plant response rating (0 to 100 scale): 125 g ai/ha
Summary of the method: as §1

[12] = tested on: giant foxtail (Setaria faberii); assay: Test A postemergence, visual injury rating; conditions: 0 is no effect, 100 is complete control; for Foxtail, Giant plant response rating: 31 g ai/ha, 0 to 100 scale, approximately 10 days; for Foxtail, Giant plant response rating (0 to 100 scale): 125 g ai/ha
Summary of the method: as §1

[13] = tested on: kochia (Kochia scoparia); assay: Test A postemergence, visual injury rating; conditions: 0 is no effect, 100 is complete control; for Kochia plant response rating: 31 g ai/ha, 0 to 100 scale, approximately 10 days; for Kochia plant response rating (0 to 100 scale): 125 g ai/ha
Summary of the method: as §1

[14] = tested on: pigweed (Amaranthus retroflexus); assay: Test A postemergence, visual injury rating; conditions: 0 is no effect, 100 is complete control; for Pigweed plant response rating: 31 g ai/ha, 0 to 100 scale, approximately 10 days; for Pigweed plant response rating (0 to 100 scale): 125 g ai/ha
Summary of the method: as §1

[15] = tested on: ragweed (common ragweed, Ambrosia elatior); assay: Test A postemergence, visual injury rating; conditions: 0 is no effect, 100 is complete control; for Ragweed plant response rating: 31 g ai/ha, 0 to 100 scale, approximately 10 days; for Ragweed plant response rating (0 to 100 scale): 125 g ai/ha
Summary of the method: as §1

[16] = tested on: wheat (Triticum aestivum); assay: Test A postemergence, visual injury rating; conditions: 0 is no effect, 100 is complete control; for Wheat plant response rating: 31 g ai/ha, 0 to 100 scale, approximately 10 days; for Wheat plant response rating (0 to 100 scale): 125 g ai/ha
Summary of the method: as §1

[17] = tested on: barnyardgrass (Echinochloa crus-galli); assay: Test B flooded paddy test, plant response rating; conditions: 250 g ai/ha; Flood; scale of 0 to 100 where 0 is no effect and 100 is complete control; 13 to 15 days
Summary of the method: (§2)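 In-water treatment: compound dosed into 3 cm flood over soil, water level unchanged throughout. Controls run alongside; visual assessment at day 13–15.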

[18] = tested on: ducksalad (Heteranthera limosa); assay: Test B flooded paddy test, plant response rating; conditions: 250 g ai/ha; Flood; scale of 0 to 100 where 0 is no effect and 100 is complete control; 13 to 15 days
Summary of the method: as §2

[19] = tested on: rice (Oryza sativa); assay: Test B flooded paddy test, plant response rating; conditions: 250 g ai/ha; Flood; scale of 0 to 100 where 0 is no effect and 100 is complete control; 13 to 15 days
Summary of the method: as §2

[20] = tested on: sedge, umbrella (small-flower umbrella sedge, Cyperus difformis); assay: Test B flooded paddy test, plant response rating; conditions: 250 g ai/ha; Flood; scale of 0 to 100 where 0 is no effect and 100 is complete control; 13 to 15 days
Summary of the method: as §2

With `C=C(Cl)COC(=O)c1c(Br)cccc1Oc1ncc(Cl)cn1` [Compound 2] the “Plant response rating, Ryegrass, Italian” value [1] was 0, the “Ryegrass, Italian plant response rating” value [1] was 10 and the “Plant response rating, Barnyardgrass” value [2] was 10. The “Barnyardgrass plant response rating” value [2] was 50, the “Plant response rating, Foxtail, Giant” value [3] was 70 and the “Foxtail, Giant plant response rating” value [3] was 100. For the same molecule, the “Plant response rating, Kochia” value [4] was 30, the “Kochia plant response rating” value [4] was 70 and the “Plant response rating, Pigweed” value [5] was 40. The “Pigweed plant response rating” value [5] was 90, the “Plant response rating, Ragweed” value [6] was 0 and the “Ragweed plant response rating” value [6] was 0. For the same molecule, the “Ryegrass, Italian plant response rating” value [7] was 0, the “Ryegrass, Italian plant response rating (0 to 100 scale)” value [7] was 20 and the “Barnyardgrass plant response rating” value [8] was 30. The “Barnyardgrass plant response rating (0 to 100 scale)” value [8] was 40, the “Blackgrass plant response rating” value [9] was 0 and the “Blackgrass plant response rating (0 to 100 scale)” value [9] was 30. For the same molecule, the “Corn plant response rating” value [10] was 10, the “Corn plant response rating (0 to 100 scale)” value [10] was 20 and the “Galium plant response rating” value [11] was 60. For the same molecule, the “Galium plant response rating (0 to 100 scale)” value [11] was 90, the “Foxtail, Giant plant response rating” value [12] was 30 and the “Foxtail, Giant plant response rating (0 to 100 scale)” value [12] was 60. The “Kochia plant response rating” value [13] was 50, the “Kochia plant response rating (0 to 100 scale)” value [13] was 90 and the “Pigweed plant response rating” value [14] was 60. For the same molecule, the “Pigweed plant response rating (0 to 100 scale)” value [14] was 80, the “Ragweed plant response rating” value [15] was 0 and the “Ragweed plant response rating (0 to 100 scale)” value [15] was 0. The “Wheat plant response rating” value [16] was 0, the “Wheat plant response rating (0 to 100 scale)” value [16] was 0 and the “Plant response rating, Barnyardgrass” value [17] was 0. The “Plant response rating, Ducksalad” value [18] was 30, the “Plant response rating, Rice” value [19] was 0 and the “Plant response rating, Sedge, Umbrella” value [20] was 100.
In the case of `CCCC(=O)c1c(C#N)cccc1Oc1ncc(Cl)cn1` [Compound 67], the “Plant response rating, Ryegrass, Italian” value [1] is reported as 0, the “Ryegrass, Italian plant response rating” value [1] is reported as 0 and the “Plant response rating, Barnyardgrass” value [2] is reported as 0. For the same molecule, the “Barnyardgrass plant response rating” value [2] was 0, the “Plant response rating, Foxtail, Giant” value [3] was 0 and the “Foxtail, Giant plant response rating” value [3] was 0. For the same molecule, the “Plant response rating, Kochia” value [4] was 0, the “Kochia plant response rating” value [4] was 0 and the “Plant response rating, Pigweed” value [5] was 0. For the same molecule, the “Pigweed plant response rating” value [5] was 0, the “Plant response rating, Ragweed” value [6] was 0 and the “Ragweed plant response rating” value [6] was 0. For the same molecule, the “Ryegrass, Italian plant response rating” value [7] was 0, the “Ryegrass, Italian plant response rating (0 to 100 scale)” value [7] was 0 and the “Barnyardgrass plant response rating” value [8] was 0. For the same molecule, the “Barnyardgrass plant response rating (0 to 100 scale)” value [8] was 0, the “Blackgrass plant response rating” value [9] was 0 and the “Blackgrass plant response rating (0 to 100 scale)” value [9] was 0. For the same molecule, the “Corn plant response rating” value [10] was 0, the “Corn plant response rating (0 to 100 scale)” value [10] was 0 and the “Galium plant response rating” value [11] was 0. The “Galium plant response rating (0 to 100 scale)” value [11] was 0, the “Foxtail, Giant plant response rating” value [12] was 0 and the “Foxtail, Giant plant response rating (0 to 100 scale)” value [12] was 0. The “Kochia plant response rating” value [13] was 0, the “Kochia plant response rating (0 to 100 scale)” value [13] was 0 and the “Pigweed plant response rating” value [14] was 0. The “Pigweed plant response rating (0 to 100 scale)” value [14] was 0, the “Ragweed plant response rating” value [15] was 0 and the “Ragweed plant response rating (0 to 100 scale)” value [15] was 0. For the same molecule, the “Wheat plant response rating” value [16] was 0, the “Wheat plant response rating (0 to 100 scale)” value [16] was 0 and the “Plant response rating, Barnyardgrass” value [17] was 0. For the same molecule, the “Plant response rating, Ducksalad” value [18] was 0, the “Plant response rating, Rice” value [19] was 0 and the “Plant response rating, Sedge, Umbrella” value [20] was 0.
